Data reported in paper PMC8876231, “Analogues of Natural Chalcones as Efficient Inhibitors of AKR1C3” (Metabolites, 2022).

Tests used:
AKR1C2 = molecular target: T1, AKR1C2 (Homo sapiens, UniProt P52895); assay: AKR1C2 inhibition assay (DHT to 3α-androstanediol); type: biochemical; settings: 10 µM compound, mean ± SD
T1 construct: Myc (N); expressed in transfected cells; host or cells: HEK293
T1 sequence (P52895 1-323): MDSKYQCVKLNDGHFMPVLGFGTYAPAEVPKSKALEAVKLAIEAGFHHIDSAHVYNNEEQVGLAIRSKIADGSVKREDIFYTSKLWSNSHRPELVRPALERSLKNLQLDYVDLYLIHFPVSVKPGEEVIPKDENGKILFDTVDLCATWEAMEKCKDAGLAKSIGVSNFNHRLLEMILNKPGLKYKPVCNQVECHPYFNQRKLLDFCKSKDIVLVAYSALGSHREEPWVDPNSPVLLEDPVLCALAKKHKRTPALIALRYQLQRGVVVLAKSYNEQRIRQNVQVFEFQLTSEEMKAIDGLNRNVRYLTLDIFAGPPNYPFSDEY
Source text: For enzymatic assays and inhibitor testing, all enzymes were cloned into bacterial or mammalian expression vectors. AKR1C3 and the human hydroxysteroid dehydrogenases HSD17B1, HSD17B2, HSD17B4 (SDR domain), HSD17B7, and HSD17B10 were cloned into a pGEX vector as described in [71, 72]. The coding sequences for AKR1C1, AKR1C2, and AKR1C4 were cloned by Gateway technology into the pcDNA3-N-MycDest vector according to the manufacturer’s instructions (Life Technologies, Carlsbad, CA, USA). The p11 plasmid coding for HSD17B14 (S205 variant) was a gift from Udo Opperman SGC Oxford, UK. For assays with HSD17B3, HEK293 cells stably expressing HSD17B3 were used. Enzymes were expressed in E. coli BL21 DE3 or E. coli BL21 DE3 Codon Plus RP (Stratagene, San Diego, CA, USA) or in HEK293 cells as described in [71, 72, 73]. Bacterial and cell pellets were stored at −20 °C and −80 °C, respectively, until use.
Inhibition assays were carried out as described in [71, 74]. […] For a detailed assay setup, see Supplementary Table S6. The incubation at 37 °C was stopped with 0.21 M ascorbic acid in methanol:acetic acid 99:1 (v:v) after the time needed to convert approximately 30% of the substrate in a control assay with 1% DMSO, without inhibitor candidate. Substrates and products were extracted from the reaction mixture by solid-phase extraction using C18 cartridges (Phenomenex, Aschaffenburg, Germany) and separated by RP–HPLC in a Beckman–Coulter HPLC Gold system, using the Luna 5 µm C18(2), 125 × 4.0 mm column (Phenomenex). […] Radioactivity was detected by online scintillation counting by using a radioactivity monitor (LB506D, Berthold Technologies, Bad Wildbad, Germany). Conversion of substrates to products was determined by integration of the peak area of the substrate and product peaks in percent. […]

HEK293T cells = assay: Cell Titer Blue cell viability (cytotoxicity) assay; settings: 72 h, 1 µM to 100 µM tested
Procedure: For the cultivation of HEK293T cells, Dulbecco’s modified Eagle medium (DMEM, Pan Biotech GmbH, Aidenbach, Germany) supplemented with 10% FCS (Pan Biotech GmbH), 100 U/mL penicillin, and 100 µg/mL streptomycin (Pan Biotech GmbH) was used. The cells were cultured at 37 °C and 5% CO2 in constant humidity. Before cell seeding, culture flasks and multiwell plates were coated with collagen G (0.001% in PBS, Merck, Darmstadt, Germany).
For studying the cytotoxicity of the different chalcones and the positive control compounds cisplatin and etoposide on HEK293T cells, the Cell Titer® Blue (CTB) Cell Viability Assay was used (Promega, Mannheim, Germany). A total of 10,000 cells in a 200 µL culture medium were seeded into each well of a 96-well plate. Then, 24 h after seeding, the cells were treated with 0, 1, 2.5, 5, 7.5, 10, 15, 25, 50, or 100 µM of the different compounds (3 wells per compound and concentration) and incubated for an additional 72 h. For measurement of cell viability, 20 µL of CTB reagent were added to each well, and after 5 h at 37 °C, the metabolic activity was quantified by recording the fluorescence signal (λEx 560 nm, λEm 590 nm) on a Spark plate reader (Tecan Trading GmbH, Männedorf, Switzerland). […] Statistical significances were calculated by one-way ANOVA (Dunnett’s multiple comparison test), * p < 0.05, ** p < 0.005, *** p < 0.0002, **** p < 0.0001.

Inhibition of AKR1C2 at 10 µM in % (AKR1C2) | Inhibition of AKR1C2 at 10 µM in % (AKR1C2; listed as 18 (MF11)) [%] | inhibition at 10 µM (AKR1C2) [%] | SMILES | Compound concentration at which HEK293T viability was significantly decreased (HEK293T cells) [µM]
not more than 42.3% | 21.4 ± 5.1 |  | COc1ccc(/C=C/C(=O)c2c(O)cc(O)cc2OC)cc1 [Compound 18] | 
 |  | 94 ± 0.4 | O=C(/C=C/c1ccc(Cl)cc1Cl)c1c(O)cc(O)cc1O [Compound 23, 2,4-dichloro-2′,4′,6′-trihydroxychalcone] | ≥ 50
 |  |  | COc1cc(O)cc(O)c1C(=O)/C=C/c1ccc(Cl)cc1Cl [Compound 25] | 7.5
